Consider 26 compounds from patent US9481654B2, “Compositions and methods for inhibition of the JAK pathway” (Rigel Pharmaceuticals, Inc., priority 2006, dated 2016).

SMILES strings stand for the structures.

Assay [1] has as its system IL-4 stimulated CD23 upregulation in human Ramos B cells (JAK-1/JAK-3, Stat-6). Put plainly: Assay for Ramos B-Cell Line Stimulated with IL-4 (CD23 upregulation, FACS). It counts as cell-based. Conditions: Table III Example 3. The gist of the method:
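Flow cytometry of CD23 staining after 20-24 h IL-4 stimulation (50 units/mL final) of human Ramos B cells in RPMI with 5% serum. Cells, 5×10^4 per point, received compound or DMSO vehicle for 1 h at 37° C prior to stimulation.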

In assay [2] the test system is IFNγ induced ICAM-1 (CD54) up-regulation in A549 lung epithelial cells (JAK/Stat pathway). The assay can be described thus: A549 Epithelial Line Stimulated with IFNγ (ICAM-1 surface expression, flow cytometry). The format is cell-based, human. The procedure, abridged:
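A549 cells (20,000/well, adhered overnight) pre-treated with compound 1 h, then IFNγ 75 ng/mL for 24 h; compound 30 μM–14 nM in 5% FBS, 0.3% DMSO. Surface ICAM-1 stained with APC anti-CD54, geometric mean by flow cytometry; dose-response gives EC50.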
Background: Flow cytometry measures light scatter and fluorescence of single cells or particles in a stream.

In general, IC50 refers to the point on the concentration scale where inhibition reaches its midpoint. High values mean weaker potency in that assay, low ones greater potency in that assay.

On to `Cc1ccc(Nc2ncc(C)c(Nc3ccc4c(c3)CCN(S(=O)(=O)C3CC3)C4)n2)cc1S(N)(=O)=O` [II-3, N2-(3-aminosulfonyl-4-methyl)phenyl-N4-[(N-cyclopropylsulfonyl)-1,2,3,4-tetrahydroisoquinolin-6-yl]-5-methyl-2,4-pyrimidinediamine], for which the results for the IC50 in assay [1] and in assay [2] (Table III Example 5) were 0.0194 µM and 12.4 µM, respectively.

Turning to `NS(=O)(=O)c1cccc(Nc2ncc(Cl)c(Nc3ccc(CNS(=O)(=O)C4CC4)cc3)n2)c1` [Compound I-114, N2-(3-aminosulfonyl)phenyl-5-chloro-N4-(4-cyclopropylsulfonylaminomethyl)phenyl-2,4-pyrimidinediamine], the IC50 in assay [1] was 0.0206 µM; in assay [2] (Table III Example 5), 5.65 µM.

As for `COCCCNS(=O)(=O)c1cc(Nc2ncc(C)c(Nc3ccc(CNS(=O)(=O)C4CC4)cc3)n2)ccc1C` [Compound I-191, N4-(4-cyclopropylsulfonylaminomethyl)phenyl-N2-[3-(3-methoxypropyl)aminosulfonyl-4-methyl]phenyl-5-methyl-2,4-pyrimidinediamine], the results for the IC50 in assay [1] and in assay [2] (Table III Example 5) were 0.0512 µM and 3.06 µM, respectively.

For the compound `NS(=O)(=O)c1cccc(Nc2ncc(F)c(Nc3ccc(CNS(=O)(=O)C4CCCCC4)cc3)n2)c1` [Compound I-72, N2-(3-aminosulfonyl)phenyl-N4-(4-cyclohexylsulfonylaminomethyl)phenyl-5-fluoro-2,4-pyrimidinediamine], the IC50 in assay [1] is 0.0569 µM; in assay [2] (Table III Example 5), 2.66 µM.

For the compound `CNS(=O)(=O)c1ccc(Nc2ncc(C)c(Nc3cccc(CNS(=O)(=O)C4CC4)c3)n2)cc1` [Compound I-207, N4-(3-cyclopropylsulfonylaminomethyl)phenyl-5-methyl-N2-(4-methylaminosulfonyl)phenyl-2,4-pyrimidinediamine], the IC50 came out at 0.0865 µM in assay [1] and 6.11 µM in assay [2] (Table III Example 5).

On to `COCCNS(=O)(=O)c1cc(Nc2ncc(C)c(Nc3ccc(CNS(=O)(=O)C4CC4)cc3)n2)ccc1C` [Compound I-190, N4-(4-cyclopropylsulfonylaminomethyl)phenyl-N2-[3-(2-methoxyethyl)aminosulfonyl-4-methyl]phenyl-5-methyl-2,4-pyrimidinediamine], for which the values for the IC50 in assay [1] and in assay [2] (Table III Example 5) were 0.0726 µM and 1.36 µM, respectively.

`Cc1ccc(Nc2ncc(F)c(Nc3cccc(CNS(=O)(=O)C4CC4)c3)n2)cc1S(N)(=O)=O` [Compound I-34, N2-(3-aminosulfonyl-4-methyl)phenyl-N4-(3-cyclopropylsulfonylaminomethyl)phenyl-5-fluoro-2,4-pyrimidinediamine]: the IC50 in assay [1] was determined as 0.184 µM; in assay [2] (Table III Example 5), 5.7 µM.

Consider `CNS(=O)(=O)c1cccc(Nc2ncc(C)c(Nc3ccc(CNS(=O)(=O)C4CC4)cc3)n2)c1` [Compound I-161, N4-(4-cyclopropylsulfonylaminomethyl)phenyl-5-methyl-N2-(3-methylaminosulfonyl)phenyl-2,4-pyrimidinediamine], for which the IC50 turned out to be 0.0167 µM in assay [1] and 24.4 µM in assay [2] (Table III Example 5).

For `C#CCNS(=O)(=O)c1ccc(Nc2ncc(C)c(Nc3ccc(CNS(=O)(=O)C4CC4)cc3)n2)cc1` [Compound I-164, N4-(4-cyclopropylsulfonylaminomethyl)phenyl-5-methyl-N2-(4-propargylaminosulfonyl)phenyl-2,4-pyrimidinediamine], the results for the IC50 in assay [1] and in assay [2] (Table III Example 5) were 0.0613 µM and 13.8 µM, respectively.

As to `Cc1ccc(Nc2ncc(C)c(Nc3cccc(CNS(=O)(=O)C4CC4)c3)n2)cc1S(N)(=O)=O` [Compound I-52, N2-(3-aminosulfonyl-4-methyl)phenyl-N4-(3-cyclopropylsulfonylaminomethyl)phenyl-5-methyl-2,4-pyrimidinediamine], the IC50 was 0.0685 µM in assay [1] and 2.55 µM in assay [2] (Table III Example 5).

For the compound `Cc1ccc(Nc2ncc(F)c(Nc3ccc(CNS(=O)(=O)C(C)C)cc3)n2)cc1S(N)(=O)=O` [Compound I-67, N2-(3-aminosulfonyl-4-methyl)phenyl-5-fluoro-N4-(4-isopropylsulfonylaminomethyl)phenyl-2,4-pyrimidinediamine], the IC50 in assay [1] was determined as 0.0824 µM; in assay [2] (Table III Example 5), 3.29 µM.

Take `Cc1cnc(Nc2cccc(S(N)(=O)=O)c2)nc1Nc1cccc(CN(C)S(=O)(=O)C2CC2)c1` [Compound I-120, N2-(3-aminosulfonyl)phenyl-N4-[3-(N-cyclopropylsulfonyl-N-methyl)aminomethyl]phenyl-5-methyl-2,4-pyrimidinediamine]: the IC50 in assay [1] came to 0.0671 µM; in assay [2] (Table III Example 5) it was 2.54 µM.

On to `CCS(=O)(=O)NCc1cccc(Nc2nc(Nc3cccc(S(N)(=O)=O)c3)ncc2F)c1` [Compound I-12, N2-(3-aminosulfonyl)phenyl-N4-(3-ethylsulfonylaminomethyl)phenyl-5-fluoro-2,4-pyrimidinediamine], for which the results for the IC50 in assay [1] and in assay [2] (Table III Example 5) were 0.17 µM and 4.57 µM, respectively.

Consider `Cc1ccc(Nc2ncc(C)c(Nc3ccc(CN(C)S(=O)(=O)C4CC4)cc3)n2)cc1S(N)(=O)=O` [Compound I-126, N2-(3-aminosulfonyl-4-methyl)phenyl-N4-[4-(N-cyclopropylsulfonyl-N-methyl)aminomethyl]phenyl-5-methyl-2,4-pyrimidinediamine], for which the IC50 stood at 0.104 µM in assay [1] and 5.56 µM in assay [2] (Table III Example 5).

On to `Cc1ccc(Nc2ncc(C)c(Nc3ccc(CNS(=O)(=O)C4CC4)cc3)n2)cc1S(=O)(=O)Nc1ccccc1` [Compound I-202, N4-(4-cyclopropylsulfonylaminomethyl)phenyl-5-methyl-N2-(4-methyl-3-phenylaminosulfonyl)phenyl-2,4-pyrimidinediamine], for which the IC50 in assay [1] came to 0.0865 µM; in assay [2] (Table III Example 5), 6.05 µM.

Take `Cc1cnc(Nc2ccc(S(N)(=O)=O)cc2)nc1Nc1ccc2c(c1)CCN(S(=O)(=O)C1CC1)C2` [II-1, N2-(4-aminosulfonyl)phenyl-N4-[(N-cyclopropylsulfonyl)-1,2,3,4-tetrahydroisoquinolin-6-yl]-5-methyl-2,4-pyrimidinediamine]: the half-maximal inhibitory concentration (IC50) in assay [1] was 0.0423 µM; in assay [2] (Table III Example 5), 18.3 µM.

Take `COCCCNS(=O)(=O)c1cccc(Nc2ncc(C)c(Nc3ccc(CNS(=O)(=O)C4CC4)cc3)n2)c1` [Compound I-182, N4-(4-cyclopropylsulfonylaminomethyl)phenyl-N2-[3-(3-methoxypropyl)aminosulfonyl]phenyl-5-methyl-2,4-pyrimidinediamine]: the IC50 in assay [1] worked out at 0.0257 µM; in assay [2] (Table III Example 5), 2.25 µM.

Consider `Cc1cnc(Nc2cccc(S(N)(=O)=O)c2)nc1Nc1ccc(CNS(=O)(=O)C(C)C)cc1` [Compound I-118, N2-(3-aminosulfonyl)phenyl-N4-(4-isopropylsulfonylaminomethyl)phenyl-5-methyl-2,4-pyrimidinediamine], for which the IC50 in assay [1] stood at 0.0398 µM; in assay [2] (Table III Example 5), 2.48 µM.

As to `Cc1ccc(Nc2ncc(F)c(Nc3ccc(CNS(=O)(=O)c4cccs4)cc3)n2)cc1S(N)(=O)=O` [Compound I-37, N2-(3-aminosulfonyl-4-methyl)phenyl-5-fluoro-N4-[4-(thiophen-2-yl)sulfonylaminomethyl]phenyl-2,4-pyrimidinediamine], the results for the IC50 in assay [1] and in assay [2] (Table III Example 5) were 0.0462 µM and 27.7 µM, respectively.

`COCCCNS(=O)(=O)c1ccc(Nc2ncc(C)c(Nc3ccc(CNS(=O)(=O)C4CC4)cc3)n2)cc1` [Compound I-181, N4-(4-cyclopropylsulfonylaminomethyl)phenyl-N2-[4-(3-methoxypropyl)aminosulfonyl]phenyl-5-methyl-2,4-pyrimidinediamine]: the IC50 in assay [1] came out at 0.0731 µM; in assay [2] (Table III Example 5) it was 2.35 µM.

As for `CCS(=O)(=O)N[C@@H](C)c1ccc(Nc2nc(Nc3cccc(S(N)(=O)=O)c3)ncc2F)cc1` [Compound I-27, N2-(3-aminosulfonyl)phenyl-N4-[4-(1S-ethylsulfonylamino)ethyl]phenyl-5-fluoro-2,4-pyrimidinediamine], the IC50 was 0.118 µM in assay [1] and 5.84 µM in assay [2] (Table III Example 5).

For the compound `C#CCNS(=O)(=O)Cc1ccc(Nc2nc(Nc3ccc(C)c(S(N)(=O)=O)c3)ncc2F)cc1` [Compound I-5, N2-(3-Aminosulfonyl-4-methylphenyl)-5-fluoro-N4-[4-(prop-2-ynylaminosulfonylmethyl)phenyl]-2,4-pyrimidinediamine], the half-maximal inhibitory concentration (IC50) in assay [1] (Homo sapiens, Ramos) worked out at 0.13 µM; in assay [2] (Homo sapiens, A549, Table III Example 5) it was 56.6 µM.

For `Cc1cnc(Nc2cccc(S(N)(=O)=O)c2)nc1Nc1ccc2c(c1)CN(S(=O)(=O)C1CC1)C2` [II-8, N2-(3-Aminosulfonyl-phenyl)-N4-[(2-cyclopropylsulfonyl)-isoindolin-5-yl]-5-methyl-2,4-pyrimidinediamine], the IC50 turned out to be 0.0979 µM in assay [1] and 17.8 µM in assay [2] (Table III Example 5).

For `CCCNS(=O)(=O)c1cccc(Nc2ncc(C)c(Nc3ccc(CNS(=O)(=O)C4CC4)cc3)n2)c1` [Compound I-178, N4-(4-cyclopropylsulfonylaminomethyl)phenyl-5-methyl-N2-(3-propylaminosulfonyl)phenyl-2,4-pyrimidinediamine], the IC50 in assay [1] is 0.023 µM; in assay [2] (Table III Example 5), 5.45 µM.

Regarding `Cc1ccc(Nc2ncc(C)c(Nc3ccc(CNS(=O)(=O)C4CC4)cc3)n2)cc1S(=O)(=O)NCC1CC1` [Compound I-192, N2-(3-cyclopropylmethylaminosulfonyl-4-methyl)phenyl-N4-(4-cyclopropylsulfonylaminomethyl)phenyl-5-methyl-2,4-pyrimidinediamine], the IC50 was determined as 0.0547 µM in assay [1] and 2.3 µM in assay [2] (Table III Example 5).

Turning to `CCS(=O)(=O)NCCc1ccc(Nc2nc(Nc3ccc(C)c(S(N)(=O)=O)c3)ncc2C)cc1` [Compound I-40, N2-(3-aminosulfonyl-4-methyl)phenyl-N4-[4-(2-ethylsulfonylamino)ethyl]phenyl-5-methyl-2,4-pyrimidinediamine], the IC50 in assay [1] worked out at 0.0681 µM; in assay [2] (Table III Example 5) it was 3.49 µM.
